Laboratory results reported in patent US9073855B2, “BCL-2 selective apoptosis-inducing agents for the treatment of cancer and immune diseases” (AbbVie Inc., priority 2008, dated 2015).

Assays:
[1] = molecular target: GST-Bcl-2 (Homo sapiens, UniProt P10415); assay: TR-FRET binding assay, GST-Bcl-2 with F-Bak peptide probe; details: for Ki: TR-FRET Binding Affinity; for Binding selectivity ratio (Bcl-XL Ki/Bcl-2 Ki): TR-FRET, Bcl-XL Ki divided by Bcl-2 Ki
Outline: (§1)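 Displacement of a fluorescein-labelled Bak peptide from the GST-tagged protein was followed by time-resolved FRET with a terbium anti-GST donor after 3 h incubation at room temperature. Inhibition constants were calculated with Wang's equation.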

[2] = molecular target: GST-Bcl-XL (Homo sapiens, UniProt Q07817); assay: TR-FRET binding assay, GST-Bcl-XL with F-Bak peptide probe; details: TR-FRET Binding Affinity
Outline: as §1

[3] = GST-Bcl-XL, F-Bak peptide probe

Sequence of GST-Bcl-XL (Q07817 whole entry): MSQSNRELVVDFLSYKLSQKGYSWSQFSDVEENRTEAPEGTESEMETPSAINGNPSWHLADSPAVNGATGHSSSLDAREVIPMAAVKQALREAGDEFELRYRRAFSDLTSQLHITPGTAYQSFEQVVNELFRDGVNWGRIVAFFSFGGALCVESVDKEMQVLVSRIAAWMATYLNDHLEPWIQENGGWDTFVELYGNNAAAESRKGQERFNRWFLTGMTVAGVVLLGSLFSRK
Sequence of GST-Bcl-2 (P10415 whole entry): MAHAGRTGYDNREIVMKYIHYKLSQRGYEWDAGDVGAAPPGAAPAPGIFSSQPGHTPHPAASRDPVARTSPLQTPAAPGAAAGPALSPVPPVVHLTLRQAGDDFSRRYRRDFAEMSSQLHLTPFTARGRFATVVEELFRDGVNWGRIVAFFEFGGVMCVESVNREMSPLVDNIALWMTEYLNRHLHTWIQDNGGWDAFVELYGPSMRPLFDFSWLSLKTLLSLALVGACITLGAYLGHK

Row | SMILES | Ki [1] [nM] | Binding selectivity ratio (Bcl-XL Ki/Bcl-2 Ki) [1] | Ki [2] [nM] | Ki ([1]; GST-Bcl-2, F-Bak peptide probe) [nM] | Ki [2, 3] [nM]
1 | CCN(C)C(=O)N1CCOC(CNc2ccc(S(=O)(=O)NC(=O)c3ccc(N4CCN(CC5=C(c6ccc(Cl)cc6)CC(C)(C)CC5)CC4)cc3Oc3cccc4[nH]ncc34)cc2[N+](=O)[O-])C1 (stereo not drawn) [Example 506, 2-{[(4-{[4-(4-{[2-(4-chlorophenyl)-4,4-dimethylcyclohex-1-en-1-yl]methyl}piperazin-1-yl)-2-(1H-indazol-4-yloxy)benzoyl]sulfamoyl}-2-nitrophenyl)amino]methyl}-N-ethyl-N-methylmorpholine-4-carboxamide] | < 0.01 | >445.7 | 4.46 | – | –
2 | CN1CC[C@H](Nc2ccc(S(=O)(=O)NC(=O)c3ccc(N4CCN(CC5=C(c6ccc(Cl)cc6)CC(C)(C)CC5)CC4)cc3Oc3ccc4[nH]ccc4c3)cc2[N+](=O)[O-])C1 [Example 234, 4-(4-{[2-(4-chlorophenyl)-4,4-dimethylcyclohex-1-en-1-yl]methyl}piperazin-1-yl)-2-(1H-indol-5-yloxy)-N-[(4-{[(3S)-1-methylpyrrolidin-3-yl]amino}-3-nitrophenyl)sulfonyl]benzamide] | – | – | – | 0.369 | 24.5
3 | CC1(C)CCC(CN2CCN(c3ccc(C(=O)NS(=O)(=O)c4ccc(NN5CCN(CCO)CC5)c([N+](=O)[O-])c4)c(Oc4ccc5[nH]ccc5c4)c3)CC2)=C(c2ccc(Cl)cc2)C1 [Example 233, 4-(4-{[2-(4-chlorophenyl)-4,4-dimethylcyclohex-1-en-1-yl]methyl}piperazin-1-yl)-N-[(4-{[4-(2-hydroxyethyl)piperazin-1-yl]amino}-3-nitrophenyl)sulfonyl]-2-(1H-indol-5-yloxy)benzamide] | – | – | – | 0.243 | > 660
4 | O=C(NS(=O)(=O)c1ccc(NCC2CCOCC2)c(S(=O)(=O)C(F)(F)F)c1)c1ccc(N2CCN(Cc3ccccc3-c3ccc(Cl)cc3)CC2)cc1Oc1ccc2ccccc2c1 [Example 37, 4-{4-[(4′-chloro-1,1′-biphenyl-2-yl)methyl]piperazin-1-yl}-2-(2-naphthyloxy)-N-({4-[(tetrahydro-2H-pyran-4-ylmethyl)amino]-3-[(trifluoromethyl)sulfonyl]phenyl}sulfonyl)benzamide] | – | – | – | 0.464 | 44.4
5 | CC1(C)CCC(CN2CCN(c3ccc(C(=O)NS(=O)(=O)c4ccc(OCC5(F)CCOCC5)c([N+](=O)[O-])c4)c(Oc4cccc5[nH]nnc45)c3)CC2)=C(c2ccc(Cl)cc2)C1 [Example 519, 2-(1H-benzotriazol-4-yloxy)-4-(4-{[2-(4-chlorophenyl)-4,4-dimethylcyclohex-1-en-1-yl]methyl}piperazin-1-yl)-N-({4-[(4-fluorotetrahydro-2H-pyran-4-yl)methoxy]-3-nitrophenyl}sulfonyl)benzamide] | 0.012 | 25935.4 | 311 | – | –
6 | CC1(C)CCC(CN2CCN(c3ccc(C(=O)NS(=O)(=O)c4ccc(OCC5(F)CCN(C6COC6)CC5)c(C#N)c4)c(Oc4cccc5[nH]ncc45)c3)CC2)=C(c2ccc(Cl)cc2)C1 [Example 534, 4-(4-{[2-(4-chlorophenyl)-4,4-dimethylcyclohex-1-en-1-yl]methyl}piperazin-1-yl)-N-[(3-cyano-4-{[4-fluoro-1-(oxetan-3-yl)piperidin-4-yl]methoxy}phenyl)sulfonyl]-2-(1H-indazol-4-yloxy)benzamide] | < 0.01 | >4603.9 | 46 | – | –
7 | CC1(C)CCC(CN2CCN(c3ccc(C(=O)NS(=O)(=O)c4cnc(OC[C@@H]5CCN(CC(F)F)C5)c(Cl)c4)c(Oc4cccc5[nH]ncc45)c3)CC2)=C(c2ccc(Cl)cc2)C1 [Example 445, N-[(5-chloro-6-{[(3R)-1-(2,2-difluoroethyl)pyrrolidin-3-yl]methoxy}pyridin-3-yl)sulfonyl]-4-(4-{[2-(4-chlorophenyl)-4,4-dimethylcyclohex-1-en-1-yl]methyl}piperazin-1-yl)-2-(1H-indazol-4-yloxy)benzamide] | 0.028 | 484.2 | 13.6 | – | –
